The values below come from patent US11680060B2, “Bicycloheptane pyrrolidine orexin receptor agonists” (Merck Sharp & Dohme LLC, priority 2020, dated 2023).

The assay deals with human OX2R (Homo sapiens (Human), UniProt O43614). Nature of the assay: IPOne (IP-1) assay in CHO cells expressing human OX2R. Format: cell-based. The note with it: for IC50: CHO cells expressing human OX2R, IP-One detection, 2 hours incubation, EC50 = inflection point of four parameter logistic fit, read-out: hOX2R_IP_IC50; for Emax: CHO. The method in brief: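 CHO cells stably expressing human OX2R were stimulated with compound (10-point ½-log dilutions) for 2 h at 37 °C. IP-1 accumulation was read by HTRF (IP-One, 665/620 nm). EC50 from a four-parameter fit; % effect relative to 1 μM reference agonist control.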

[1] abbreviates: percentage of mean max effect of a reference compound at 1 uM (100% activity by comparison to Orexin A), human OX2R, read-out: Emax (%).

Where two headings read alike, the source gives them in different places.

human OX2R, sequence (O43614 whole entry): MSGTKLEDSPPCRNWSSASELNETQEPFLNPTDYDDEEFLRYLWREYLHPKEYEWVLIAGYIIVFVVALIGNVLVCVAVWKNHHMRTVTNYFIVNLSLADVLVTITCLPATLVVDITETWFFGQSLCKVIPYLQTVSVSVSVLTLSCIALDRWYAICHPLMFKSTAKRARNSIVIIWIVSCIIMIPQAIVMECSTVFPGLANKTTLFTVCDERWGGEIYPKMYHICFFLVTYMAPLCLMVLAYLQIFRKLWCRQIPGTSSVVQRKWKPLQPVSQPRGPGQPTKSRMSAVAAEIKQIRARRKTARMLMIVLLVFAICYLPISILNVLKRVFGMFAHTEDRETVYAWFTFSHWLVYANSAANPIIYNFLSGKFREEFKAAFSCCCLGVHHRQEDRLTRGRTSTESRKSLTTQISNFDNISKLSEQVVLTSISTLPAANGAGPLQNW

The term Emax denotes the maximal effect, on the per cent scale that the assay sets. `COC(=O)N1[C@H](C)C[C@H](NS(C)(=O)=O)[C@@H]1COC1CCC2(c3ncc(C#N)cn3)CC2C1` (mixture of isomers) [Example 188, methyl (2R,3S,5R)-2-(((6-(5-cyanopyrimidin-2-yl)bicyclo[4.1.0]heptan-3-yl)oxy)methyl)-5-methyl-3-(methylsulfonamido)pyrrolidine-1-carboxylate]: the IC50 was found to be 195 nM. The maximal effect (Emax) under setting [1] was 96.9%.

As for `COC(=O)N1[C@H](C(F)F)C[C@H](NS(=O)(=O)C2CC2)[C@@H]1COC1CCC2(c3ncc(F)cn3)CC2C1` (stereo partly drawn) [Example 116, methyl (2R,3S,5S)-3-(cyclopropanesulfonamido)-5-(difluoromethyl)-2-(((6-(5-fluoropyrimidin-2-yl)bicyclo[4.1.0]heptan-3-yl)oxy)methyl)pyrrolidine-1-carboxylate], the Emax under setting [1] was determined as 102%.

On to `CCS(=O)(=O)N[C@H]1C[C@@H](C(F)F)N(C(=O)OC)[C@H]1CO[C@H]1CC[C@@]2(c3ncc(Cl)cn3)C[C@H]2C1` (single isomer, unassigned) [Example 114], for which the IC50 was 1.4 nM. For the same compound, the Emax under setting [1] amounted to 98.6%.

In the case of `CC(C)OC(=O)N1[C@H](C)C[C@H](NS(C)(=O)=O)[C@@H]1COC1CCC2(c3ncc(Cl)cn3)CC2C1` (stereo partly drawn) [Example 154, isopropyl (2R,3S,5R)-2-(((6-(5-chloropyrimidin-2-yl)bicyclo[4.1.0]heptan-3-yl)oxy)methyl)-5-methyl-3-(methylsulfonamido)pyrrolidine-1-carboxylate], the Emax under setting [1] is 101%.

Take `COC(=O)N1[C@H](C)C[C@H](NS(=O)(=O)N(C)C)[C@@H]1COC1CCC2(c3cccc(F)c3)CC2C1` (mixture of isomers) [Example 3, methyl (2R,3S,5R)-3-((N,N-dimethylsulfamoyl)amino)-2-(((6-(3-fluorophenyl)bicyclo[4.1.0]heptan-3-yl)oxy)methyl)-5-methylpyrrolidine-1-carboxylate]: under setting [1], the Emax is 99.9%.

Take `COC(=O)N1[C@H](C)C[C@H](NS(=O)(=O)N(C)C)[C@@H]1COC1CCC2(c3ncccn3)C(C1)C2(F)F` (stereo partly drawn) [Example 7, methyl (2R,3S,5R)-2-(((7,7-difluoro-6-(pyrimidin-2-yl)bicyclo[4.1.0]heptan-3-yl)oxy)methyl)-3-((N,N-dimethylsulfamoyl)amino)-5-methylpyrrolidine-1-carboxylate]: the Emax under setting [1] was found to be 39.4%.

As to `COC(=O)N1[C@H](C)C[C@H](NS(C)(=O)=O)[C@@H]1CO[C@@H]1CC[C@]2(c3ncccn3)C[C@@H]2C1` (single isomer, unassigned) [Example 180], the IC50 is 100 nM. The Emax under setting [1] was 99.7%.

With `COC(=O)N1[C@@H]2CCC[C@@H]2[C@H](NS(=O)(=O)CF)[C@@H]1COC1CCC2(c3ncc(F)cn3)CC2C1` (stereo partly drawn) [Example 130, methyl (2R,3S,3aS,6aR)-3-((fluoromethyl)sulfonamido)-2-(((6-(5-fluoropyrimidin-2-yl)bicyclo[4.1.0]heptan-3-yl)oxy)methyl)hexahydrocyclopenta[b]pyrrole-1(2H)-carboxylate], the Emax under setting [1] came out at 101%.

`CCS(=O)(=O)N[C@H]1C[C@@H](C(F)F)N(C(=O)OC)[C@H]1COC1CCC2(c3ncc(F)cn3)CC2C1` (stereo partly drawn) [Example 117, methyl (2R,3S,5S)-5-(difluoromethyl)-3-(ethylsulfonamido)-2-(((6-(5-fluoropyrimidin-2-yl)bicyclo[4.1.0]heptan-3-yl)oxy)methyl)pyrrolidine-1-carboxylate]: under setting [1], the maximum response (Emax) was 101%.

As for `CC(C)OC(=O)N1[C@H](C)C[C@H](NS(=O)(=O)CF)[C@@H]1COC1CCC2(c3ncc(Br)cn3)CC2C1` (stereo partly drawn) [Example 108, isopropyl (2R,3S,5R)-2-(((6-(5-bromopyrimidin-2-yl)bicyclo[4.1.0]heptan-3-yl)oxy)methyl)-3-((fluoromethyl)sulfonamido)-5-methylpyrrolidine-1-carboxylate], the Emax under setting [1] was found to be 105%.

With `COC(=O)N1[C@H](C)C[C@H](NS(=O)(=O)N2CCC2)[C@@H]1CO[C@H]1CC[C@@]2(c3ncc(F)cn3)C[C@H]2C1` [Example 39, methyl (2R,3S,5R)-3-(azetidine-1-sulfonamido)-2-((((1S,3S,6R)-6-(5-fluoropyrimidin-2-yl)bicyclo[4.1.0]heptan-3-yl)oxy)methyl)-5-methylpyrrolidine-1-carboxylate], the Emax under setting [1] is 103%.

As for `CC(C)OC(=O)N1[C@H](C)C[C@H](NS(=O)(=O)CF)[C@@H]1CO[C@H]1CC[C@@]2(c3ncc(F)cn3)C[C@H]2C1` (single isomer, unassigned) [Example 100], the IC50 came to 1 nM. For the same compound, the Emax under setting [1] turned out to be 100%.

As for `CC(F)COC(=O)N1[C@H](C)C[C@H](NS(C)(=O)=O)[C@@H]1CO[C@H]1CC[C@@]2(c3ncc(F)cn3)C[C@H]2C1` (stereo partly drawn) [Example 58, 2-fluoropropyl (2R,3S,5R)-2-((((1S,3S,6R)-6-(5-fluoropyrimidin-2-yl)bicyclo[4.1.0]heptan-3-yl)oxy)methyl)-5-methyl-3-(methylsulfonamido)pyrrolidine-1-carboxylate], the Emax under setting [1] was 103%.

For `COC(=O)N1[C@H](C)C[C@H](NS(C)(=O)=O)[C@@H]1COC1CCC2(c3nccs3)CC2C1` (stereo partly drawn) [Example 149, methyl (2R,3S,5R)-5-methyl-3-(methylsulfonamido)-2-(((6-(thiazol-2-yl)bicyclo[4.1.0]heptan-3-yl)oxy)methyl)pyrrolidine-1-carboxylate], the Emax under setting [1] was 96.8%.

For the compound `COC(=O)N1[C@H](C)C[C@H](NS(=O)(=O)N(C)C)[C@@H]1COC1CCC2(c3ccccn3)CC2C1` (stereo partly drawn) [Example 9, methyl (2R,3S,5R)-3-((N,N-dimethylsulfamoyl)amino)-5-methyl-2-(((6-(pyridin-2-yl)bicyclo[4.1.0]heptan-3-yl)oxy)methyl)pyrrolidine-1-carboxylate], the Emax under setting [1] stood at 99%.

On to `COC(=O)N1[C@H](C)C[C@H](NS(=O)(=O)C2COC2)[C@@H]1CO[C@H]1CC[C@@]2(c3ncc(F)cn3)C[C@H]2C1` [Example 40, methyl (2R,3S,5R)-2-((((1S,3S,6R)-6-(5-fluoropyrimidin-2-yl)bicyclo[4.1.0]heptan-3-yl)oxy)methyl)-5-methyl-3-(oxetane-3-sulfonamido)pyrrolidine-1-carboxylate], for which the maximal effect (Emax) under setting [1] is 102%.

With `COC(=O)N1[C@H](C)C[C@H](NS(=O)(=O)Cc2ccccc2)[C@@H]1CO[C@@H]1CC[C@]2(c3ncc(F)cn3)C[C@@H]2C1` [Example 45, methyl (2R,3S,5R)-2-((((1R,3R,6S)-6-(5-fluoropyrimidin-2-yl)bicyclo[4.1.0]heptan-3-yl)oxy)methyl)-5-methyl-3-((phenylmethyl)sulfonamido)pyrrolidine-1-carboxylate], under setting [1], the Emax stood at 92.7%.

Take `C[C@@H]1C[C@H](NS(C)(=O)=O)[C@H](CO[C@H]2CC[C@@]3(c4ncc(F)cn4)C[C@H]3C2)N1C(=O)OCC1CC(F)C1` (stereo partly drawn) [Example 49, (3-fluorocyclobutyl)methyl (2R,3S,5R)-2-((((1S,3S,6R)-6-(5-fluoropyrimidin-2-yl)bicyclo[4.1.0]heptan-3-yl)oxy)methyl)-5-methyl-3-(methylsulfonamido)pyrrolidine-1-carboxylate]: the maximum response (Emax) came to 103%.

Consider `COC(=O)N1[C@H](C)C[C@H](NS(=O)(=O)N(C)C)[C@@H]1COC1CCC2(c3ncc(F)cn3)CC2C1` (stereo partly drawn) [Example 169, methyl (2R,3S,5R)-3-((N,N-dimethylsulfamoyl)amino)-2-(((6-(5-fluoropyrimidin-2-yl)bicyclo[4.1.0]heptan-3-yl)oxy)methyl)-5-methylpyrrolidine-1-carboxylate], for which the IC50 stood at 1.5 nM.
